# From PubChem BioAssay AID1963847 (Molecular Pharmacology Branch, DTP, NCI, 2024)
# “And” between values parts separate entries of the source, which are not always exact repeats. Equal entries are not always repeated.
# System: 415267-285-R-J2-PDC complex spheroid viability
# Assay: Anticancer human tumor 415267-285-R-J2-PDC patient-derived breast carcinoma cell line growth inhibition [POLQ]
# Conditions: for viability, T/C: stronger effect = lower value
# Experimental: Multicellular complex tumor spheroid response to Polymerase (POL) inhibitors (novobiocin, ART-558, RP6685) in combination with a variety of drugs and investigational agents in selected tumor cell lines
# The POL inhibitors (novobiocin, ART-558, and RP6685) were evaluated both individually and in combination with standard of care and investigational anticancer small molecules within a complex spheroid model of solid tumors. . Complex spheroids include a stromal component modeled by human endothelial cells (HUVEC) and fibroblasts modeled by human mesenchymal stem cells (MSCs). The concentration ranges selected for each drug and investigational agent were based upon clinically achievable concentrations if the clinical Cmax of the agent was known.
# Compounds. The drugs and investigational agents: novobiocin (NSC847541), ART-558 (NSC835418), RP-6685 (NSC848927), peposertib (NSC802822), ceralasertib (NSC780249), elimusertib (NSC800525), camonsertib (NSC841442), AZD-1390 (NSC803789), olaparib (NSC753686), talazoparib (NSC767125), rucaparib (NSC756644), sotorasib (NSC818433), MRTX-1133 (NSC836407), SN-38 (NSC673596), topotecan (NSC609699), epotoside (NSC141540), doxorubicin (NSC123127), gemcitabine (NSC613327), 5-fluorouracil (NSC19893), paclitaxel (NSC125973), vemurafenib (NSC761431), MSA-2 (NSC828583), SN-011 (NSC837082), adavosertib (NSC754352), prexasertib (NSC758257), carboplatin (NSC241240) and oxaliplatin (NSC266046), were obtained from the National Cancer Institute (NCI) Developmental Therapeutics Program Chemical Repository (21). The FDA-approved anticancer drug set is available from the Developmental Therapeutics Program at https://dtp.cancer.gov/organization/dscb/obtaining/. […] The stock solutions were prepared in dimethyl sulfoxide (DMSO, Sigma-Aldrich, St. Louis, MO, cat. D2650), except for the platinum compounds which were prepared in saline (Quality Biological, Gaithersburg, MD, cat. 114-055-101), at 800-fold the tested concentration and stored at -70 degrees C prior to their use. All drugs and investigational agents were tested over a range starting from a high concentration at or near the clinical Cmax and decreasing in half-log increments. If the clinical Cmax for an agent had not been determined, the highest concentration tested was 10 microM, except for SN-38, which was tested at a high concentration of 1 microM.
# Cell Culture. All cells were maintained in an incubator at 37 degrees C and 5% CO2 with 95% humidity. The PDC lines were cultured according to standard operating procedures established by the NCI PDMR (https://pdmr.cancer.gov). Table 3 of the manuscript, lists the cell lines along with the number of the three cell types plated to form the mct-spheroids and media for tumor cell growth. After thawing, all PDC lines, except 997537-175-T-J1-PDC and 415267-285-R-J2-PDC, were cultured in Matrigel-coated flasks prepared with a working solution of 1X Ham's F-12 nutrient mix, without supplementation (Thermo Fisher Scientific, cat. 11765054), 100 U/mL penicillin-streptomycin (Thermo Fisher Scientific, cat. 15140122), and 2.5% Matrigel (Corning Inc., Corning, NY, cat. 354248) for the first three passages. The two PDC lines 997537-175-T-J1-PDC and 415267-285-R-J2-PDC were cultured on uncoated flasks. The 857933-349-R-J2-PDC line was cultured in 6C/Colon 1B media containing advanced DMEM/F-12 (Thermo Fisher Scientific, cat. 12634028), 10 mM HEPES (Thermo Fisher Scientific, cat. 15630080), 1X GlutaMAX supplement (Thermo Fisher Scientific, cat. 35050061), 0.1 mg/mL primocin (InvivoGen, San Diego, CA, cat. ant-pm-2), 10% defined fetal bovine serum, heat inactivated (HyClone Laboratories Inc., Logan, UT, cat. SH30070.03HI), 50% L-WRN conditioned media (ATCC, cat. CRL-3276), 1.25 mM N-Acetyl-L-cysteine (Sigma-Aldrich, cat. A9165), 10 mM nicotinamide (Sigma-Aldrich, cat. N0636), 1X B-27 supplement (Thermo Fisher Scientific, cat. 17504044), 1X N-2 supplement (Thermo Fisher Scientific, cat. […]
# 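Also: spheroids exposed to compounds for one week before readout.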
# 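For viability, T/C in this document: luminescence used as stand-in measure of viable cells; 100% = DMSO vehicle control viability.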
smiles,measurement,setting,value
CCCS(=O)(=O)Nc1ccc(F)c(C(=O)c2c[nH]c3ncc(-c4ccc(Cl)cc4)cc23)c1F + Nc1ccc(C#CCN(C(=O)Cc2ncc(C(F)(F)F)cc2C(F)(F)F)c2ccc(F)cc2)nn1,IC50,"curve of first compound, second compound 0.0316 µM",> 10 µM
same,IC50,"curve of first compound, second compound 0.1 µM",> 10 µM
same,IC50,"curve of first compound, second compound 0.316 µM",> 10 µM
same,IC50,"curve of first compound, second compound 1 µM",> 10 µM
same,IC50,"curve of first compound, second compound 3.16 µM",> 10 µM
same,IC50,"curve of first compound, second compound 10 µM",> 10 µM
same,"viability, T/C","second compound 0.0316 µM, first compound 0.0316 µM",92%
same,"viability, T/C","second compound 0.0316 µM, first compound 0.1 µM",111%
same,"viability, T/C","second compound 0.0316 µM, first compound 0.316 µM",102%
same,"viability, T/C","second compound 0.0316 µM, first compound 1 µM",90.8%
same,"viability, T/C","second compound 0.0316 µM, first compound 3.16 µM",90.6%
same,"viability, T/C","second compound 0.0316 µM, first compound 10 µM",89.6%
same,"viability, T/C","second compound 0.1 µM, first compound 0.0316 µM",117%
same,"viability, T/C","second compound 0.1 µM, first compound 0.1 µM",105%
same,"viability, T/C","second compound 0.1 µM, first compound 0.316 µM",91.1%
same,"viability, T/C","second compound 0.1 µM, first compound 1 µM",107%
same,"viability, T/C","second compound 0.1 µM, first compound 3.16 µM",109%
same,"viability, T/C","second compound 0.1 µM, first compound 10 µM",90.3%
same,"viability, T/C","second compound 0.316 µM, first compound 0.0316 µM",114%
same,"viability, T/C","second compound 0.316 µM, first compound 0.1 µM",109%
same,"viability, T/C","second compound 0.316 µM, first compound 0.316 µM",108%
same,"viability, T/C","second compound 0.316 µM, first compound 1 µM",95.2%
same,"viability, T/C","second compound 0.316 µM, first compound 3.16 µM",96.2%
same,"viability, T/C","second compound 0.316 µM, first compound 10 µM",89.2%
same,"viability, T/C","second compound 1 µM, first compound 0.0316 µM",110%
same,"viability, T/C","second compound 1 µM, first compound 0.1 µM",107%
same,"viability, T/C","second compound 1 µM, first compound 0.316 µM",105%
same,"viability, T/C","second compound 1 µM, first compound 1 µM",100%
same,"viability, T/C","second compound 1 µM, first compound 3.16 µM",105%
same,"viability, T/C","second compound 1 µM, first compound 10 µM",82.3%
same,"viability, T/C","second compound 3.16 µM, first compound 0.0316 µM",107%
same,"viability, T/C","second compound 3.16 µM, first compound 0.1 µM",112%
same,"viability, T/C","second compound 3.16 µM, first compound 0.316 µM",107%
same,"viability, T/C","second compound 3.16 µM, first compound 1 µM",104%
same,"viability, T/C","second compound 3.16 µM, first compound 3.16 µM",94.2%
same,"viability, T/C","second compound 3.16 µM, first compound 10 µM",92.9%
same,"viability, T/C","second compound 10 µM, first compound 0.0316 µM",95.5%
same,"viability, T/C","second compound 10 µM, first compound 0.1 µM",105%
same,"viability, T/C","second compound 10 µM, first compound 0.316 µM",104%
same,"viability, T/C","second compound 10 µM, first compound 1 µM",98.4%
same,"viability, T/C","second compound 10 µM, first compound 3.16 µM",104%
same,"viability, T/C","second compound 10 µM, first compound 10 µM",90.8%
COC1C(OC(N)=O)C(O)C(Oc2ccc3c(O)c(NC(=O)c4ccc(O)c(CC=C(C)C)c4)c(=O)oc3c2C)OC1(C)C (configuration not stated),"viability, T/C",compound 0.0316 µM,99.2% [middle of 13 runs]
same,"viability, T/C",compound 0.1 µM,105% [middle of 13 runs]
same,"viability, T/C",compound 0.316 µM,99.3% [middle of 13 runs]
same,"viability, T/C",compound 3.16 µM,102% [middle of 13 runs]
same,"viability, T/C",compound 10 µM,102% [middle of 13 runs]
same,IC50,"compound alone, run of 01/08/2024",> 10 µM
CC1COCCN1c1cc(-c2ccnn2C)c2ccnc(-c3ccn[nH]3)c2n1 (configuration not stated),"viability, T/C",compound 0.0316 µM,46.6% and 47.9% and 59.5%
same,"viability, T/C",compound 0.1 µM,10.6% and 13.9% and 11.1%
same,"viability, T/C",compound 0.316 µM,6.96% and 5.73% and 5.2%
same,"viability, T/C",compound 1 µM,5.32% and 5.61% and 4.36%
same,"viability, T/C",compound 3.16 µM,4.68% and 4.28% and 3.7%
same,"viability, T/C",compound 10 µM,4.66% and 4.53% and 3.78%
same,IC50,curve of compound,< 0.0316 µM and 0.0396 µM
Cn1ncnc1[C@H]1c2n[nH]c(=O)c3cc(F)cc(c23)N[C@@H]1c1ccc(F)cc1,"viability, T/C",compound 0.000316 µM,88.1% and 97.7% and 104%
same,"viability, T/C",compound 0.001 µM,98.2% and 104% and 91.7%
same,"viability, T/C",compound 0.00316 µM,90.7% and 92.5% and 103%
same,"viability, T/C",compound 0.01 µM,101% and 98.7% and 94.5%
same,"viability, T/C",compound 0.0316 µM,108% and 89.2% and 99%
same,"viability, T/C",compound 0.1 µM,93.3% and 102% and 100%
same,IC50,curve of compound,> 0.1 µM
